Like-named read-outs stand apart in the source and are kept apart here.
Legend:
[1] = literature; cited from earlier work
[2] = system: viruses; details: cited from earlier work
[3] = system: acyclovir-resistant HSV-2; assay: Plaque inhibition, acyclovir-resistant HSV-2 in Vero cells; type: cell-based; details: FIG. 7, Panel B
[4] = system: wild-type HSV-2; assay: Plaque inhibition, wild-type HSV-2 in Vero cells; type: cell-based; details: FIG. 7, Panel A
[5] = system: HIV-1; assay: HIV-1 replication in PHA/IL-2-stimulated human peripheral blood mononuclear cells (p24 ELISA); type: cell-based; details: n-docosanol/Pluronic, FIG. 13
Protocol: Human peripheral blood mononuclear cells were cultured in medium containing 1 μg/ml PHA plus 5 units/ml IL-2 alone or also containing 100 μg/ml PFA, […] F-68 control vehicle contained in the high dose of n-docosanol/Pluronic. After overnight incubation, the cultures were inoculated with HIV-1 at a multiplicity of infection of 1 virion/cell. After 24 hours incubation at 37° C., the cultures were washed and inoculated with fresh medium containing PHA and IL-2, but lacking inhibitor. Replication of HIV-1 was determined 4 days later by quantitation of viral antigens by a p24-specific ELISA for HIV-1.
Our initial studies on HIV were conducted in collaboration with a U.S. National Institutes of Health laboratory and one of several experiments of this type is summarized in FIG. 13. Normal human peripheral blood mononuclear cells were activated with […] PHA plus 5 units/ml of IL-2 in medium alone or in the presence of the n-docosanol, Pluronic F-68 control vehicle, or phosphonoformic acid (PFA). The next day, the cultures were inoculated with HIV-1 and examined 4 days later for evidence of viral replication by detection of the p24 viral antigen. […] The dose response of HIV-1 to n-docosanol indicates an ED 50 of about 6-9 mM.

[6] = system: herpes; details: literature, tissue culture; cited from earlier work
[7] = system: herpes; details: literature, animal studies; cited from earlier work

CCCCCCCCCCO [Formulation C-10]
cytotoxic and hemolytic effects [1]: exhibited cytotoxic and hemolytic effects
antiviral activity ([2]; literature): significant antiviral activity

CCCCCCCCCCCCO [Formulation C-12]
cytotoxic and hemolytic effects [1]: exhibited cytotoxic and hemolytic effects
antiviral activity ([2]; literature): significant antiviral activity

Nc1nc2c(ncn2COCCO)c(=O)[nH]1 [acyclovir, reference compound]
inhibition of acyclovir-resistant HSV-2 mutant [3]: fails to respond
inhibition of plaque formation [4]: inhibit plaque formation by wild type HSV-2 equally

OCc1ccccc1 [benzyl alcohol]
antiviral activity ([2]; under certain circumstances, U.S. Pat. No. 4,200,655): some antiviral activity

O=C(O)P(=O)(O)O [phosphonoformic acid, reference compound]
inhibition of HIV-1 replication [5]: very potent antiviral compound

CCCCCCCCCCCCCCCCCCCCCCCCCCCCCCO [triacontanol]
direct antiviral activity [6]: lacked direct antiviral activity
anti-herpes activity [7]: active as an anti-herpes agent

Source: patent publication US5534554A, “Sucrose ester-C20 to C28 alcohol formulations” (priority 1994, dated 1996)
